Source: PubChem BioAssay AID1320 (NMMLSC, 2008)
pEC50: −log10 of the molar value. Active and inactive are the calls of the source. The rule behind the calls is not given here.

What follows are compounds tested against Bcl-2-related protein A1 (Homo sapiens) (UniProt Q16548) (assay: Bfl-1/Bim complex disruptors – biochemical, multiplexed, bead-based flow cytometry, dose response (AID 1320; for percent span (inhibition): test concentration not given here)). Settings: Bim peptide-Bfl-1 binding, fluorescence.
Sequence of Bcl-2-related protein A1 (Homo sapiens) (Q16548 whole entry, looked up): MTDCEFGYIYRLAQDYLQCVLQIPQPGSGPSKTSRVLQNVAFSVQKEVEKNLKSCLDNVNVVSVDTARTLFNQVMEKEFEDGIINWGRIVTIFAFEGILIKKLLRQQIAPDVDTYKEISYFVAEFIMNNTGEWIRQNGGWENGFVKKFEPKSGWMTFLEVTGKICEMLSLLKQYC
Compound `CCC(=O)N(CC)C1=C(O)c2ccccc2C(=O)C1=O` has a pEC50 of 7.10.
`O=[N+]([O-])c1ccc(N/N=C/c2ccc(O)c(O)c2O)c(S(=O)(=O)N2CCOCC2)c1` gave a pEC50 of 5.35.

Same assay, conditions: Bim peptide-Bfl-1 binding, fluorescence, hits give high values
In the case of `COc1cc2[nH]c(=S)nc(NCCc3ccc(S(N)(=O)=O)cc3)c2cc1OC`, the “percent span (inhibition)” value was “inactive”.
In the case of `Cc1cc(C)cc(NS(=O)(=O)c2ccc3c(c2)c(=O)n(C)c(=O)n3C)c1`, the “percent span (inhibition)” value was “inactive”.
With `CCCCCCc1cc2cc(C(=O)Nc3ccccc3)c(=O)oc2cc1O` the “percent span (inhibition)” value was “inactive”.
`c1csc(C2=Nn3c(nnc3-c3ccncc3)SC2)c1` was tested, and the “percent span (inhibition)” value was “inactive”.
For `Cn1cccc1CC(=O)N/N=C\c1ccccc1`, the “percent span (inhibition)” value was “inactive”.
For `O=C(NCCCN1CCCC1=O)NC1CCCCC1`, the “percent span (inhibition)” value was “inactive”.
`CCOc1c(Cl)cc(CNc2ccc(N3CCCC3)cc2)cc1OC` was tested, and the “percent span (inhibition)” value was “inactive”.
`CC(C(=O)Nc1cc([N+](=O)[O-])ccc1Cl)N1CCN(c2ccc(O)cc2)CC1` (stereo not drawn) was tested, and the “percent span (inhibition)” value was “inactive”.
In the case of `O=C(OCC(=O)c1ccc[nH]1)c1ccccc1`, the “percent span (inhibition)” value was “inactive”.
For `COC(=O)c1[nH]c2ccccc2c1NC(=O)c1ccccc1[N+](=O)[O-]`, the “percent span (inhibition)” value was “inactive”.
For `COc1ccccc1Nc1nc(-c2c(C)nc3ncccn23)cs1`, the “percent span (inhibition)” value was “inactive”.
For `COc1ccc(-c2noc(COc3ccc4c(c3)OCO4)n2)cc1OC`, the “percent span (inhibition)” value was “inactive”.
For `Cc1c(N2C(=O)c3ccc4c5c(ccc(c35)C2=O)CC4)c(=O)n(-c2ccccc2)n1C`, the “percent span (inhibition)” value was “inactive”.
In the case of `CN=c1scc(C)n1/N=C/c1ccc(O)c(O)c1O`, the “percent span (inhibition)” value was “inactive”.
For `CSc1nnc2ccc(-c3cccs3)nn12`, the “percent span (inhibition)” value was “inactive”.
For `BrC(=C\c1ccccc1)/C=N/N1CCN(c2ccccc2)CC1`, the “percent span (inhibition)” value was “inactive”.
`Cn1c(CCNC(=O)C2CCCCC2)nc2cc(NC(=O)c3cccs3)ccc21` was tested, and the “percent span (inhibition)” value was “inactive”.
`CCN(CC)c1ccc(NC(=O)COc2ccccc2C)cc1S(=O)(=O)Nc1ccccc1OC` was tested, and the “percent span (inhibition)” value was “inactive”.
With `Cc1ccc(C(=O)C(C(=O)/C=C/c2ccccc2)=C2SCCCS2)cc1` the “percent span (inhibition)” value was “inactive”.
With `O=C(Nc1ccc(Cl)cn1)Nc1ccccc1F` the “percent span (inhibition)” value was “inactive”.
For `COc1cc(/C=C2\S/C(=N/S(=O)(=O)c3ccc(C)cc3)NC2=O)c([N+](=O)[O-])cc1OC`, the “percent span (inhibition)” value was “inactive”.
In the case of `CCN1CCN(c2cc(C)c3cc(NC(=S)N4CCCCC4)ccc3n2)CC1`, the “percent span (inhibition)” value was “inactive”.
In the case of `COC(=O)c1cc(OC)c(OC)cc1NC(=O)Nc1cccc(C(C)=O)c1`, the “percent span (inhibition)” value was “inactive”.
For `Cc1cccc(Nc2nc(-c3ccncc3)cs2)c1`, the “percent span (inhibition)” value was “inactive”.
`Clc1ccc(N=c2ssnc2Cl)nc1` was tested, and the “percent span (inhibition)” value was “inactive”.
With `Cc1nn(-c2ccc(Cl)cc2)c(Cl)c1/C=C(\C#N)C(N)=O` the “percent span (inhibition)” value was “inactive”.
With `COc1ccccc1-n1c(SCC(=O)N2CCc3ccccc32)nc2c(c1=O)SCC2` the “percent span (inhibition)” value was “inactive”.
`COc1ccc(CC(=O)Nc2ccc(-c3nc4cc(C)ccc4o3)c(O)c2)cc1OC` was tested, and the “percent span (inhibition)” value was “inactive”.
In the case of `CC1=C2C(CCS2(=O)=O)CC2(C1)C(=O)OC(C)(C)OC2=O` (stereo not drawn), the “percent span (inhibition)” value was “inactive”.
In the case of `Cc1cc(NC(=O)CCSc2ccccc2)ccc1Br`, the “percent span (inhibition)” value was “inactive”.
`O=C(CCc1ccccc1)N1CCN(c2ccccn2)CC1` was tested, and the “percent span (inhibition)” value was “inactive”.
In the case of `Fc1cccc(Nc2nc(-c3ccncc3)nc3ccccc23)c1`, the “percent span (inhibition)” value was “inactive”.
For `COc1cc2[nH]c(=S)nc(NCC3CCCO3)c2cc1OC` (stereo not drawn), the “percent span (inhibition)” value was “inactive”.
With `O=C(Nc1nccs1)c1ccc(COc2ccc(F)cc2)o1` the “percent span (inhibition)” value was “inactive”.
`CCN1/C(=C/c2ccc3cc(C)cc(C)c3[n+]2CC)Sc2cc(C)ccc21` was tested, and the “percent span (inhibition)” value was “inactive”.
With `O=C(c1cnccn1)N(Cc1cccs1)C1(C(=O)NC2CCCCC2)CCCCC1` the “percent span (inhibition)” value was “inactive”.
With `Nc1ccc(N2CCN(CCCCN3C(=O)C4CCCN4C3=O)CC2)cc1` (stereo not drawn) the “percent span (inhibition)” value was “inactive”.
With `Cc1cc(N2CCN(C)CC2)nc2ccc(NC(=S)N3CCN(c4ccc(F)cc4)CC3)cc12` the “percent span (inhibition)” value was “inactive”.
`COc1cc2nc(=S)n(CCCN3CCOCC3)c(N)c2cc1OC` was tested, and the “percent span (inhibition)” value was “inactive”.
For `O=C(COc1ccc(Br)cc1CNC1CCCCC1)NCCc1ccccc1`, the “percent span (inhibition)” value was “inactive”.
`CC1C=CCC2C(=O)N(c3ccc(OC(=O)c4cccs4)cc3)C(=O)C12` (stereo not drawn) was tested, and the “percent span (inhibition)” value was “inactive”.
With `Cc1ccc(C(=O)CCC(=O)Nc2ccc(Cl)c(S(=O)(=O)Nc3cccc(Cl)c3)c2)cc1` the “percent span (inhibition)” value was “inactive”.
In the case of `CC[n+]1c(/C=C/C=C/N(C(C)=O)c2ccccc2)sc2ccccc21`, the “percent span (inhibition)” value was “inactive”.
For `CNC(=O)/C(C#N)=C/c1c(N(Cc2ccccc2)Cc2ccccc2)nc2c(C)cccn2c1=O`, the “percent span (inhibition)” value was “inactive”.
For `Cc1ccc(CNc2ccc3c(c2)OCO3)c(C)c1`, the “percent span (inhibition)” value was “inactive”.
`COc1ccc2cc(CN(CCc3ccccc3)Cc3nnnn3CC3CCCO3)c(=O)[nH]c2c1` (stereo not drawn) was tested, and the “percent span (inhibition)” value was “inactive”.
For `CN(CCc1ccccn1)C(=O)CCC1CCCN(C(=O)NC2CCCCC2)C1` (stereo not drawn), the “percent span (inhibition)” value was “inactive”.
For `Cc1ccc(NC(=O)c2cc(S(=O)(=O)NCCC3=CCCCC3)ccc2F)cc1F`, the “percent span (inhibition)” value was “inactive”.
`O=C(CSc1ccc2nnc(-c3ccccn3)n2n1)Nc1nccs1` was tested, and the “percent span (inhibition)” value was “inactive”.
In the case of `Cc1[nH]n(C(N)=S)c(=O)c1N=Nc1ccc(S(=O)(=O)N2CCCCCC2)cc1`, the “percent span (inhibition)” value was “inactive”.
`CN(/N=C/c1ccncc1)C1=NS(=O)(=O)c2ccccc21` was tested, and the “percent span (inhibition)” value was “inactive”.
For `CN(/N=C/c1cccnc1)C1=NS(=O)(=O)c2ccccc21`, the “percent span (inhibition)” value was “inactive”.
With `N#C/C(=C(/O)CN1CCN(c2ccccc2F)CC1)c1nc(-c2ccccc2)cs1` the “percent span (inhibition)” value was “inactive”.
In the case of `Cc1ccccc1OCC(=O)N/N=C/c1ccccn1`, the “percent span (inhibition)” value was “inactive”.
For `O=C(N/N=C/c1cccnc1)c1cccc(S(=O)(=O)N2CCCC2)c1`, the “percent span (inhibition)” value was “inactive”.
`N#CC(C#N)=C1C=CC=CN1/C(=C\c1ccco1)C(=O)c1ccccc1` was tested, and the “percent span (inhibition)” value was “inactive”.
In the case of `NNC(=O)COc1ccccc1F`, the “percent span (inhibition)” value was “inactive”.
For `CCOc1ccc(C(=O)Nc2nnc(NC(=S)Nc3ccccc3)s2)cc1`, the “percent span (inhibition)” value was “inactive”.
`CCOc1cc(S(=O)(=O)N2CCCCC2)ccc1F` was tested, and the “percent span (inhibition)” value was “inactive”.
With `CN(Cc1ccccc1)C(=O)c1[nH]cnc1C(=O)N[C@@H](CCCCNC(=O)OC(C)(C)C)C(=O)OC(C)(C)C` the “percent span (inhibition)” value was “inactive”.
With `CCNC(=S)Nc1cc(OCC)c(NC(=O)c2cccs2)cc1OCC` the “percent span (inhibition)” value was “inactive”.
With `COc1cc(/C=N/Nc2nn3cnnc3c3ccccc23)ccc1O` the “percent span (inhibition)” value was “inactive”.
With `O=C1C=C(Nc2ccccc2)C(=O)c2ccccc21` the “percent span (inhibition)” value was “inactive”.
For `O=C(COc1ccccc1)N1CCN(c2ncnc3c2cnn3-c2ccccc2)CC1`, the “percent span (inhibition)” value was “inactive”.
`CNCc1ccccc1Sc1cc(O)ccc1O` was tested, and the “percent span (inhibition)” value was “inactive”.
In the case of `O=C(CSc1ccc(-c2ccccc2)nn1)NCc1ccco1`, the “percent span (inhibition)” value was “inactive”.
In the case of `O=c1nc2c(O)cccn2c2c1c(=O)[nH]c1ccccc12`, the “percent span (inhibition)” value was “inactive”.
With `COc1ccc(/C=C/C(=O)Nc2sc(Cc3ccccc3)c(C)c2C(N)=O)cc1` the “percent span (inhibition)” value was “inactive”.
For `Cc1ccc(-c2cc(C(=O)Nc3ccccc3C)c3ccccc3n2)o1`, the “percent span (inhibition)” value was “inactive”.
With `COc1ccc(NC(=O)Cc2c(F)cccc2Cl)c(OC)c1` the “percent span (inhibition)” value was “inactive”.
In the case of `CCOc1ccccc1C(=O)NC1CC2CCCC(C1)N2C1CC1` (stereo not drawn), the “percent span (inhibition)” value was “inactive”.
`O=C(C1=C(Nc2ccccc2)c2ccccc2S(=O)(=O)N1)c1ccccc1` was tested, and the “percent span (inhibition)” value was “inactive”.
With `O=C(C[n+]1ccc(-c2nnc3n2CCC3)cc1)c1ccc(Cl)c(Cl)c1` the “percent span (inhibition)” value was “inactive”.
For `COc1ccc(NC(=O)c2ccco2)cc1NC(=O)c1ccco1`, the “percent span (inhibition)” value was “inactive”.
For `COc1ccc(NC(=O)c2ccc3c(c2)NC(=O)CS3)cc1S(=O)(=O)Nc1ccc(Br)cc1`, the “percent span (inhibition)” value was “inactive”.
For `CCCCOC(=O)c1nc(Cl)c(Cl)c(N)c1Cl`, the “percent span (inhibition)” value was “inactive”.
In the case of `O=C1c2ccccc2C(=O)N1CN(C(=O)COc1ccc(Cl)cc1Cl)c1cccc(F)c1`, the “percent span (inhibition)” value was “inactive”.
With `CC(C(=O)Nc1ccc([N+](=O)[O-])cc1)N1CCN(C/C=C/c2ccccc2)CC1` (stereo not drawn) the “percent span (inhibition)” value was “inactive”.
`O=C(N/N=C/c1ccncc1)c1cccc(NC(=O)c2ccccc2Cl)c1` was tested, and the “percent span (inhibition)” value was “inactive”.
With `Fc1ccc(Cn2nnnc2C(c2ccc(Cl)cc2)N2CCSCC2)cc1` (stereo not drawn) the “percent span (inhibition)” value was “inactive”.
With `COCCN=c1scc(-c2cccs2)n1/N=C/c1ccc(O)c(O)c1O` the “percent span (inhibition)” value was “inactive”.
`Cc1ccc(CC(=O)OCCNC(=O)c2cccnc2)cc1` was tested, and the “percent span (inhibition)” value was “inactive”.
For `CCCC1(C(=O)OCC)NC(c2cc(OC)c(OC)c(OC)c2)C2C(=O)N(CC)C(=O)C21` (stereo not drawn), the “percent span (inhibition)” value was “inactive”.
With `Cc1nc(=S)c2ccccc2[nH]1` the “percent span (inhibition)” value was “inactive”.
`Clc1ccc2c(N/N=C/c3cccc(Br)c3)ccnc2c1` was tested, and the “percent span (inhibition)” value was “inactive”.
With `Cc1ccc(Nc2nc(C)cs2)cc1` the “percent span (inhibition)” value was “inactive”.
